{
  "source": "patent US12397059B2",
  "about": "“Compounds and methods for the treatment and prevention of fibrotic disease states and cancer” (Purdue Research Foundation, priority 2019, dated 2025)",
  "key": {"[1]": {"tested_on": "THP-1 cells polarized to M2-like macrophages", "experiment": "Reprogramming of M2-like THP-1 macrophages, marker gene analysis by qPCR", "format": "cell-based, human", "method": "THP-1 cells were seeded into 96-well plates at a density of 60,000 cells/well. Cells were differentiated into unpolarized macrophages by 48 hours incubation with 200 nM PMA followed by 24 hours incubation in fresh RPMI medium. […] Cultures were maintained at 37° C. in a humidified 5% CO2 incubator.\nTotal RNA was isolated from 1×10^5 —2×10^5 macrophages using a Quick-RNA™ MicroPrep kit (Zymo Research, Irvine, CA) according to the manufacturer-recommended protocol. […] IL-6, CXCL10, IFNα, IFN-γ and CD86 were used as markers for an M1 phenotype, while CCL18, CD206, CD163 and Arg1 were employed as markers for the M2 phenotype. IL-1β, PDGFβ, MMP9 and TIMP 3 were measured as indicators of a profibrotic phenotype. IRAK-4 was used as an indicator of TLR7 stimulation. To control for specificity of the amplification products, a melting curve analysis was performed. […] Each sample was analyzed independently in triplicate for each marker.\nPrimarily, human monocytic (THP-1) cells were induced to the M2-like phenotype using the methods and materials previously described. In particular, THP-1 cells were seeded into 96-well plates at a density of 60,000 cells/well. Cells were differentiated into unpolarized macrophages by 48 h incubation with 200 nM PMA followed by 24 hours incubation in fresh RPMI medium. The resulting macrophages were polarized to an M2-like phenotype by incubation with 20 ng/ml IL-4, 20 ng/ml IL-13, and 5 ng/mL IL-6 for 48 h. Cultures were maintained at 37° C. in a humidified 5% CO2 incubator.\nIn addition to the nonconjugated TLR7 agonist, conjugated compounds of the present disclosure were likewise evaluated. […] The cells were subsequently harvested for gene analysis by qPCR and the relative expression of CCL18 (FIG. 14A), CD206 (FIG. 14B), and IL-1β (FIG. 14C) analyzed."}, "[2]": {"experiment": "Stability during incubation in culture media", "format": "physicochemical", "conditions": "37° C. in the culture media, 48 hours", "method": "Indeed, Compound 1B retained the original structure after 48 hours incubation."}, "[3]": {"tested_on": "BM-induced experimental pulmonary fibrosis in mice", "experiment": "BM-induced pulmonary fibrosis: markers in bronchoalveolar lavage cells/fluid (qPCR, ELISA)", "format": "in vivo", "method": "Fresh water and folate-deficient diet were freely available.\nBronchoalveolar lavage fluid (BALF) was then analyzed to determine how the targeted TLR7 agonist works. BALF samples were centrifuged at 1500 rpm for 5 min at 4° C. and the supernatant was aliquoted and stored at −80° C. for cytokine/chemokine analyses. Cell pellets were resuspended and cultured in pre-warmed RPMI 1640 medium for 2 hours and then washed 3× with pre-warmed PBS prior to harvesting for qPCR assay. The right lung was then tied with a nylon string and used for subsequent analysis of hydroxyproline content. The left lung was inflated with 1 ml PBS using the inserted syringe and transferred to 10% formalin solution for subsequent histological analyses.\nCCL18 and IL-1β were quantified in induced THP-1 cell supernatants using a human DuoSet ELISA Development System (R&D Systems Europe, Abingdon, UK; #DY394-05) and an IL-1 beta Human ELISA Kit (Thermo Fisher Scientific, Waltham, MA; #BMS224-2) as described by manufactures. BALF samples were analyzed for mouse IFN-γ using ELISA MAX™ Deluxe (Biolegend, San Diego, CA; #430804)."}, "[4]": {"conditions": "2 hours with drug, then drug-free medium"}, "[5]": {"conditions": "incubated 2 hours, harvested at once or after a further 46 hours"}, "[6]": {"conditions": "BALF cells day 21, i.v. every other day from day 10"}},
  "note": "Entries after “also recorded” stand apart in the source; their conditions may differ.",
  "data": [
    {"smiles": "CCCCc1nc2c(N)nc3ccccc3c2n1CC(C)(C)OC(=O)OCCSSCC(NC(=O)CCC(NC(=O)c1ccc(NCc2cnc3nc(N)[nH]c(=O)c3n2)cc1)C(=O)O)C(=O)O", "note": "(centres unmarked) [Compound 1B]", "values": [
      {"measurement": "TNFα induction", "setting": "[1]; [4]", "result": "dramatically improved"},
      {"measurement": "potency relative to Compound 1A", "setting": "[1]; [4]", "result": "superior potency relative to Compound 1A"},
      {"measurement": "marker changes (FIGS. 3A-3F) compared with nontargeted TLR7 agonist", "setting": "[1]; M2-induced THP-1, 48 hours incubation", "result": "same qualitative changes were observed, only the magnitude of the impact of Compound 1B was somewhat reduced"},
      {"measurement": "PDGFα", "setting": "[1]; data not shown", "result": "no significant difference"},
      {"measurement": "M1-like phenotype (CD86 mRNA, TNFα levels)", "setting": "[1]; [5]", "result": "upregulated"},
      {"measurement": "profibrotic/M2-type markers (CCL18, CD206, IL-1β, PDGFβ mRNA)", "setting": "[1]; [5]", "result": "downregulated profibrotic/M2-type markers of macrophages more than Compound 1A"},
      {"measurement": "stability during incubation", "setting": "[2]", "result": "remained stable"},
      {"measurement": "CD86 transcripts (antifibrotic marker, qPCR)", "setting": "[3]; BALF cells day 21", "result": "upregulated; also recorded: elevated"},
      {"measurement": "IRAK-4", "setting": "[3]; BALF cells day 21", "result": "upregulated; also recorded: upregulation"},
      {"measurement": "Arg1 (profibrotic marker, qPCR)", "setting": "[3]; [6]", "result": "downregulated; also recorded: suppressed"},
      {"measurement": "MMP9 (profibrotic marker, qPCR)", "setting": "[3]; [6]", "result": "downregulated; also recorded: suppressed"},
      {"measurement": "TIMP 3 (profibrotic marker, qPCR)", "setting": "[3]; [6]", "result": "downregulated; also recorded: suppressed"},
      {"measurement": "IFN-γ concentration (ELISA of lavage fluid)", "setting": "[3]; day 21", "result": "upregulated; also recorded: elevated"},
      {"measurement": "total number of BALF cells", "setting": "[3]; different doses", "result": "decreased in a dose-dependent manner"}
    ]}
  ]
}
